Reference: US12090146B2, “Substituted-pyridinyl compounds and uses thereof” (Bionomics Limited, priority 2018, dated 2024)

What was measured:
[1] = target: T1, hKv3.1 (Homo sapiens, UniProt P48547); assay: Automated patch clamp (Patchliner) whole-cell electrophysiology, Kv3.1; format: cell-based; conditions: 10 μM compound, CHO-K1 cells stably expressing hKv3.1; for Kv3.1 Activity at 10 μM Potentiation (%): % potentiation of peak current at −10 mV voltage step vs vehicle; for Kv3.1 Activity at 10 μM Voltage Shift (mV): voltage shift of the IV curve at V1/2
T1 construct: expressed in transfected cells
T1 sequence (P48547 1-511): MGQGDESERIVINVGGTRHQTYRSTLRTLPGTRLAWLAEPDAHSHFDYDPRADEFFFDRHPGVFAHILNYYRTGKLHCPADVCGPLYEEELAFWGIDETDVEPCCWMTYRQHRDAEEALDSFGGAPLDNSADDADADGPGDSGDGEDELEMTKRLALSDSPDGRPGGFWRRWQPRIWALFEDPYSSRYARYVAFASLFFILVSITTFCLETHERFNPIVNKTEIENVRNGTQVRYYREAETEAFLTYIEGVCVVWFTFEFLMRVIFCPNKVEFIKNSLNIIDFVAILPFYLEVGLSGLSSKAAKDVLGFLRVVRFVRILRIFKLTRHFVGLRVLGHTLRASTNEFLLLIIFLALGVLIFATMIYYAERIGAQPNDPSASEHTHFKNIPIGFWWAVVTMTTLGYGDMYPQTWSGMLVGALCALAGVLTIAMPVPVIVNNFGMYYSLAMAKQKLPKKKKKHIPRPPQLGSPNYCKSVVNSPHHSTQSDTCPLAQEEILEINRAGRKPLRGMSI
Outline: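 CHO-K1 cells stably expressing hKv3.x recorded by whole-cell automated patch clamp at 21-23 °C, held at −80 mV with 1000 ms steps from −60 to +60 mV, vehicle then 10 uM compound (0.33% DMSO, 3-min incubation), 4 cells. Currents normalized to +60 mV; % potentiation at −10 mV and Boltzmann V1/2 shift reported.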

[2] = target: T2, hKv3.2 (Homo sapiens, UniProt Q96PR1); assay: Automated patch clamp (Patchliner) whole-cell electrophysiology, Kv3.2; format: cell-based; conditions: 10 μM compound, CHO-K1 cells stably expressing hKv3.2; for activation at 10 µM: % potentiation of peak current at −10 mV voltage step vs vehicle; for Kv3.2 Activity at 10 μM Voltage Shift (mV): voltage shift of the IV curve at V1/2
T2 construct: expressed in transfected cells
T2 sequence (Q96PR1 1-638): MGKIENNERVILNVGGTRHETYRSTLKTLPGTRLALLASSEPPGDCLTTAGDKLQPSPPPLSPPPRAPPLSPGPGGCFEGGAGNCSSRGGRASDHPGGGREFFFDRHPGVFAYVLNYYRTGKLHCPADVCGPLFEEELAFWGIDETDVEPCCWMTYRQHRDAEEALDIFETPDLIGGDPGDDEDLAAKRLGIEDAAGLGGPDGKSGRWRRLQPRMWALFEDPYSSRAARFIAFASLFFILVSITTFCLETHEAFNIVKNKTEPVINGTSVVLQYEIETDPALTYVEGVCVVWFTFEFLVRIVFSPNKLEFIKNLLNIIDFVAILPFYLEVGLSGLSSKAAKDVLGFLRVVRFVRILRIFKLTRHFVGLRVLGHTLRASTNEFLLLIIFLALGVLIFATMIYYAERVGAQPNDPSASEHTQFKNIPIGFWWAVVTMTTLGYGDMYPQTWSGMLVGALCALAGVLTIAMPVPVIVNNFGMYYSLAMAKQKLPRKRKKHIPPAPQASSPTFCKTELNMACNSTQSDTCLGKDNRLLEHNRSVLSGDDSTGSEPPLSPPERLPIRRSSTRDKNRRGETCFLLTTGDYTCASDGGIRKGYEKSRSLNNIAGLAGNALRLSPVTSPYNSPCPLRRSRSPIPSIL
Method: hKv3.1, hKv3.2, hKv3.3, and hKv3.4 were stably expressed in CHO-K1 (Chinese hamster ovary) cells and kept under constant antibiotic selection. For in vitro assays, cells were maintained in appropriate growth medium at 37° C. and 5% CO2 in a humidified incubator.
hKv3.X expressing cells were plated in T-25 flasks for 3-4 days at 37° C. (no selection antibiotic) prior to use and grown to 80% confluence. Cells were washed twice with PBS (calcium and magnesium free) and detached with a 5-minute treatment at 37° C. with 2-3 mls of Accutase®. Cells were collected, and flask was washed in CHO-SFM II media (Life Technologies Gibco), centrifuged for 2 minutes at ˜110×g and resuspended to obtain a single cell suspension of ˜2-3×10^6 cells/ml.
The intracellular solution contained the following (in mM): KCl 50, NaCl 10, KF 60, EGTA 20, HEPES 10, adjusted to pH 7.2 with KOH and an osmolarity of 285 mOsmol. Seal enhancer was purchased from Nanion (80 mM NaCl, 3 mM KCl, 10 mM MgCl2, 35 mM CaCl2), 10 mM HEPES, pH7.4, 298 mOsmol. The external solution contained (in mM): NaCl 140, KCl 4, CaCl2) 2, MgCl2 1, HEPES 10, Glucose 5, adjusted to pH7.4 and an osmolarity of 298 mOsmol.
All compounds were initially tested at 10 uM at a final DMSO concentration of 0.33%. Compounds were dissolved in dimethylsulfoxide (DMSO) at a stock concentration of 30 mM. The compound was further diluted 1:10 to give a stock concentration of 3 mM in DMSO. The final assay solution was diluted 1:300 in External solution to give a final concentration of 10 uM. For the DMSO Control Buffer 30 uL of DMSO was added to 10 mL buffer.
All electrophysiological recordings were performed at ambient temperature (21-23° C.) using automated patch clamp (Patchliner, Nanion Technologies GmbH) in the whole-cell configuration.
Cell membrane potentials were held at −80 mV, and currents were evoked by voltage steps (1000 ms duration) from −60 to +60 mV in 10 mV increments. This was performed first with vehicle (0.33% DMSO) and then with 10 uM compound, after a 3-minute incubation period. Data was taken from 4 cells per assay.
The recordings were analysed and selected using peak current amplitude (>100 pA at the −10 mV voltage step) in the absence of compound to eliminate unsuitable cells from analysis. Peak current amplitude was measured and recorded for each voltage step and data was normalised to the maximum current at +60 mV. The normalised Kv3.x currents following addition of the compound were then compared with the currents recorded prior to compound addition (vehicle control). Positive modulation was determined as % potentiation at the voltage step of −10 mV=[current (cmpd)/current (veh)]*100−100. % potentiation ≥50% was considered acceptable. In addition, voltage shift of the IV curve at V1/2 was measured. V1/2 of ≥−5 mV was also considered acceptable. IV curves were plotted in GraphPad Prism (software version 6.0) and fitted with a Boltzmann equation, where V1/2 is the voltage at half-maximal activation.

| SMILES | Kv3.1 Activity at 10 μM Potentiation (%) [1] | Kv3.1 Activity at 10 μM Voltage Shift (mV) [1] | activation at 10 µM [2] | Kv3.2 Activity at 10 μM Voltage Shift (mV) [2] |
| --- | --- | --- | --- | --- |
| CC[C@@]1(C)NC(=O)N(c2cccc(Oc3cc(OC)cc(OC)c3)n2)C1=O [Example 70, (5R)-3-[6-(3,5-dimethoxyphenoxy)-2-pyridyl]-5-ethyl-5-methyl-imidazolidine-2,4-dione] | 44% | −2.08 mV | 34% | −2.42 mV |
| COc1cc(Oc2cccc(N3C(=O)NC4(CCCCC4)C3=O)n2)ccc1C [Example 75, 3-[6-(3-methoxy-4-methyl-phenoxy)-2-pyridyl]-1,3-diazaspiro[4.5]decane-2,4-dione] | 15% | −4.01 mV | 5% | 0 mV |
| CC1(C)NC(=O)N(c2ccc(F)c(Oc3ccc4c(c3)OC(F)(F)O4)n2)C1=O [Example 84, 3-[6-[(2,2-difluoro-1,3-benzodioxol-5-yl)oxy]-5-fluoro-2-pyridyl]-5,5-dimethyl-imidazolidine-2,4-dione] | 30% | −2.27 mV | 14% | −1.69 mV |
| COc1cc(Oc2nccc(N3C(=O)NC4(CCCC4)C3=O)c2F)ccc1C [Example 90, 3-[3-fluoro-2-(3-methoxy-4-methyl-phenoxy)-4-pyridyl]-1,3-diazaspiro[4.4]nonane-2,4-dione] | 217% | −10.39 mV | 121% | −7.43 mV |
| COc1cc(Oc2nccc(N3C(=O)NC4(CCCCC4)C3=O)c2F)ccc1C [Example 91, 3-[3-fluoro-2-(3-methoxy-4-methyl-phenoxy)-4-pyridyl]-1,3-diazaspiro[4.5]decane-2,4-dione] | 150% | −10.63 mV | 137% | −6.75 mV |
| O=C1NC2(CCCC2)C(=O)N1c1ccnc(Oc2ccc3c(c2)OC(F)(F)O3)c1F [Example 92, 3-[2-[(2,2-difluoro-1,3-benzodioxol-5-yl)oxy]-3-fluoro-4-pyridyl]-1,3-diazaspiro[4.4]nonane-2,4-dione] | 227% | −7.49 mV | 93% | −5.37 mV |
| O=C1NC2(CCCCC2)C(=O)N1c1ccnc(Oc2ccc3c(c2)OC(F)(F)O3)c1F [Example 93, 3-[2-[(2,2-difluoro-1,3-benzodioxol-5-yl)oxy]-3-fluoro-4-pyridyl]-1,3-diazaspiro[4.5]decane-2,4-dione] | 142% | −8.79 mV | 71% | −6.55 mV |
